From ChEMBL document CHEMBL1129599, “Quantitative structure-activity relationship study of fibrinogen inhibitors, [[4-(4-amidinophenoxy)butanoyl]aspartyl]valine (FK633) derivatives, using a novel hydrophobic descriptor” (J Med Chem, 1996)

Legend:
[1] = The retention time in min (30 uM); assay type: ADME
[2] = The retention time in min (40 uM); assay type: ADME
[3] = The retention time in min (35 uM); assay type: ADME
[4] = molecular target: T1, Integrin alpha-IIb/beta-3 (Homo sapiens, UniProt P05106+P08514); assay: Inhibition of alphaIIb-beta3 integrin; assay type: protein-complex assay
T1 sequence (P05106 27-788 limits assumed): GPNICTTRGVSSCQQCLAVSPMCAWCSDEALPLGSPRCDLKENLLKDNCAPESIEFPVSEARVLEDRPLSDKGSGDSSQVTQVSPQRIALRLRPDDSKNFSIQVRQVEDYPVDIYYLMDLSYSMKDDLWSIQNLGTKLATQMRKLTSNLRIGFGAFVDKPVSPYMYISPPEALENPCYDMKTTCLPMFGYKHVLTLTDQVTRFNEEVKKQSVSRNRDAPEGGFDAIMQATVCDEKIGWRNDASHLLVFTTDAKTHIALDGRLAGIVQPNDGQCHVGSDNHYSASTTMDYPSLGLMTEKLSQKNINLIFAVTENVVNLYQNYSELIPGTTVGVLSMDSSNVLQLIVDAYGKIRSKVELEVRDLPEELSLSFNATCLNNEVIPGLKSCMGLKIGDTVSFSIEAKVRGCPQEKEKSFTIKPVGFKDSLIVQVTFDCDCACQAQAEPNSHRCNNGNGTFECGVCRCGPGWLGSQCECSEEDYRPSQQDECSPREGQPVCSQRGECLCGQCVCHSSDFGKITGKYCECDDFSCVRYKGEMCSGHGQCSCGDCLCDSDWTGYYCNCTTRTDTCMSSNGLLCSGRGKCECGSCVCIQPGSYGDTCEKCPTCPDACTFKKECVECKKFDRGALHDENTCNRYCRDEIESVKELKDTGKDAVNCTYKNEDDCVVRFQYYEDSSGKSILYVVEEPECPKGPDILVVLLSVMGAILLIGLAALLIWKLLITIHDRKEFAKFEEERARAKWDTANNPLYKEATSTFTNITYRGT
T1 sequence (P08514 32-887 limits assumed): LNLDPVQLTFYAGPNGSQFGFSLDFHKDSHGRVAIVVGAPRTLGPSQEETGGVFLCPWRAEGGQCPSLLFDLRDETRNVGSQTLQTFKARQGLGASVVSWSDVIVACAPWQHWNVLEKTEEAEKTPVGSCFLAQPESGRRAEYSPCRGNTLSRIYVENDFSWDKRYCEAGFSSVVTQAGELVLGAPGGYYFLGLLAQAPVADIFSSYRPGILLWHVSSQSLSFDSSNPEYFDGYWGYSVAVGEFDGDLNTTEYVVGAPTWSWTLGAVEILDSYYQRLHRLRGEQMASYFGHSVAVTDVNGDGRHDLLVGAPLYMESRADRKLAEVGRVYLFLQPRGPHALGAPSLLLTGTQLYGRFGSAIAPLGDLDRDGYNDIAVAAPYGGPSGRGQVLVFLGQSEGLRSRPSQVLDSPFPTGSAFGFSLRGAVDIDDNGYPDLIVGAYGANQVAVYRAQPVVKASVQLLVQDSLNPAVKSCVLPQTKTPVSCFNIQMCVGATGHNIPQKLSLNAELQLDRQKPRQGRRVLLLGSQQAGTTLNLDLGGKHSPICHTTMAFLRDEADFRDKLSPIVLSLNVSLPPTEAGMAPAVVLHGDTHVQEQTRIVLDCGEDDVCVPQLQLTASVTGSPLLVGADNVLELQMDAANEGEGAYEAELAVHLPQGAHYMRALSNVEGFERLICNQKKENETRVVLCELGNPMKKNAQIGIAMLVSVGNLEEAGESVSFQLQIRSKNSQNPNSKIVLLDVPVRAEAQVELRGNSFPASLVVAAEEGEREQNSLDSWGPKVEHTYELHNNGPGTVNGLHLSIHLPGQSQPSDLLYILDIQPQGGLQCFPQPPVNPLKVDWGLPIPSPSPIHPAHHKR
T1 sequence (P08514 891-1039 limits assumed): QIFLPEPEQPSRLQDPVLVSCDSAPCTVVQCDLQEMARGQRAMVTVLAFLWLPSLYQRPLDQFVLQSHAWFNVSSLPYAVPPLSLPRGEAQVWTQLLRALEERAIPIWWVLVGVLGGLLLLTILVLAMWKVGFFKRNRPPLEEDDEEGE

[5] = Micelle/water partition coefficient; assay type: ADME; details: buffer
[6] = The retention time in min (25 uM); assay type: ADME
[7] = Inhibition of binding to fibrinogen receptor
[8] = Inhibition of alphaIIb-beta3 integrin
[9] = molecular target: T1, Integrin alpha-IIb/beta-3; assay: Inhibition of binding to integrin alphaIIb-beta3; assay type: protein-complex assay

Row | Retention time [1] [min] | Retention time [2] [min] | Retention time [3] [min] | IC50 [4] [nM] | Log Pmw [5] | Retention time [6] [min] | Log IC50 [7] | Log IC50 [8] | IC50 [9] [nM] | Structure (SMILES)
1 | 12.96 | 11.19 | 12.06 | 229 | 1.59 | 14.11 | – | – | – | CC(C)(C)C[C@H](NC(=O)[C@H](CC(=O)O)NC(=O)CCCOc1ccc(C(=N)N)cc1)C(=O)O
2 | 11.47 | 9.72 | 10.57 | – | 1.82 | 12.79 | – | -6.19 | – | N=C(N)c1ccc(OCCCCC(=O)N[C@@H](CC(=O)O)C(=O)N[C@@H](Cc2ccc(O)cc2)C(=O)O)cc1
3 | 8.773 | 7.826 | 8.25 | 135 | 1.47 | 9.413 | – | – | – | CC(C)C[C@H](NC(=O)[C@H](CC(=O)O)NC(=O)CCCOc1ccc(C(=N)N)cc1)C(=O)O
4 | 9.51 | 8.23 | 8.79 | – | 1.74 | 10.54 | – | – | – | N=C(N)c1ccc(OCCCC(=O)N[C@@H](CC(=O)O)C(=O)N[C@@H](Cc2ccc(O)cc2)C(=O)O)cc1

More lines, now with the values behind:

Row | Structure (SMILES) | Retention time [1] [min] | Retention time [2] [min] | Retention time [3] [min] | IC50 [4] [nM] | Log Pmw [5] | Retention time [6] [min] | Log IC50 [7] | Log IC50 [8] | IC50 [9] [nM]
5 | CCCC[C@H](NC(=O)[C@H](CC(=O)O)NC(=O)CCCOc1ccc(C(=N)N)cc1)C(=O)O | 10.21 | 8.943 | 9.491 | – | 1.58 | 11.11 | -7.12 | – | –
6 | CC[C@H](C)[C@H](NC(=O)[C@H](CC(=O)O)NC(=O)CCCOc1ccc(C(=N)N)cc1)C(=O)O | 8.773 | 7.826 | 8.25 | – | 1.47 | 9.413 | – | -6.85 | –
7 | COC(=O)[C@H](Cc1ccc(O)cc1)NC(=O)[C@H](CC(=O)O)NC(=O)CCCCOc1ccc(C(=N)N)cc1 | 17.31 | 14.28 | 15.56 | – | 2.09 | 20.18 | – | – | 4470
8 | CN(C(=O)[C@H](CC(=O)O)NC(=O)CCCCOc1ccc(C(=N)N)cc1)[C@@H](Cc1ccc(O)cc1)C(=O)O | 15.67 | 12.91 | 14.24 | – | 2 | 17.87 | – | -6.57 | –
9 | N=C(N)c1ccc(OCCCCC(=O)N[C@@H](CC(=O)O)C(=O)N[C@@H](CO)C(=O)O)cc1 | 3.269 | 3.199 | 3.238 | – | 0.904 | 3.324 | – | – | –
10 | CN(C(=O)[C@H](CC(=O)O)NC(=O)CCCOc1ccc(C(=N)N)cc1)[C@@H](Cc1ccc(O)cc1)C(=O)O | 13.01 | 10.91 | 11.82 | 129 | 1.96 | 14.85 | – | – | –
11 | CC(C)[C@H](NC(=O)[C@H](CC(=O)O)NC(=O)CCCOc1ccc(C(=N)N)cc1)C(=O)O | 5.545 | 5.207 | 5.347 | 110 | 1.29 | 5.898 | – | – | –
12 | CC(C)[C@H](NC(=O)[C@H](CC(=O)O)NC(=O)CCCCOc1ccc(C(=N)N)cc1)C(=O)O | 7.12 | 6.52 | 6.832 | – | 1.32 | 7.547 | – | -6.64 | –
